Data from article PMC11351612, “Heteronuclear Complexes with Promising Anticancer Activity against Colon Cancer” (Biomedicines, 2024).

How the values were obtained:
[1] = Distribution coefficient (logP7.4), n-octanol-water shake-flask; assay type: physicochemical; conditions: n-octanol / buffered saline pH 7.4, shake-flask
Protocol: Distribution coefficient (logP7.4). The n-octanol-water coefficients of the complexes were determined using a shake-flask method, as previously reported. Briefly, buffered-saline distilled water (100 mL, phosphate buffer [PO4^3−] = 10 mM, [NaCl] = 0.15 M, pH 7.4) and n-octanol (100 mL) were shaken together for 72 h to allow for saturation of both phases. Approximately 1 mg of the complexes was dissolved in 5 mL of the aqueous phase and 5 mL of the organic phase was added, mixing them for 10 min. The resulting emulsion was centrifuged to separate the phases. The concentration of the compounds in each phase was determined using UV-vis absorbance spectroscopy. The logP7.4 was defined as log{[compound(organic)]/[compound(aqueous)]}.

[2] = tested on: differentiated Caco-2/PD7 cells; assay: Cell viability of differentiated (enterocyte-like) Caco-2/PD7 cells; assay type: cell-based, human; conditions: for Cell viability of differentiated Caco-2 cells at 2 × IC50: differentiated Caco-2/PD7, concentration = 2 × IC50, 72 h
Protocol: For cell viability studies of differentiated (enterocyte-like) cells, Caco-2/PD7 cells were seeded on 96-well plates at a density of 4 × 10^3 cells/well and incubated for approximately 10–15 days, changing the culture medium every 3 days, up to reaching confluence—the moment in which the cells were treated with the complexes at concentrations equal to their mean IC50 and 2 × IC50 values.
It is well known that the Caco-2 cell line undergoes spontaneous differentiation into enterocytic-like cells when it reaches confluency. As a result, these cells become polarised, expressing apical and basolateral surfaces with established tight junctions. This allowed for the evaluation of the cytotoxic impact of the complexes on differentiated cells (acting as noncarcinogenic) and a comparison with the viability of undifferentiated cells. Thus, the toxicity of the two heteronuclear compounds has been studied by cell viability experiments by treatment of Caco-2/PD7 cells after differentiation with complexes 1 and 2 at the corresponding concentrations equivalent to IC50 and 2 × IC50 values for 72 h. The results expressed as the % of cell viability observed after treatment with the complexes (or 100% for non-treated control cells) are summarised in Figure S16 (Supplementary Materials). […] However, the cell viability is around 90% even when the cells are treated with double the IC50 concentration.

Caco-2/TC7 = assay: Intracellular ROS generation (DCFH-DA); assay type: cell-based, human; conditions: IC50 concentration, monitored 3 h
Protocol: Measurement of intracellular ROS generation. The production of ROS was measured in Caco-2/TC7 seeded at a 4000 cells/well concentration in a 96-well plate, as described above. After 24 h, the culture growth medium was removed and cells were washed with PBS 1× and incubated with 20 µM DCFH-DA (Sigma-Aldrich) (100 µL/well) at 37 °C for 45 min in the dark. Afterwards, cells were washed with PBS 1× and then incubated with the tested compounds at their IC50 concentration or with 500 µM of H2O2 for the positive control. The fluorescent emission of DCF was monitored at 530 nm right after the addition of the complexes for 3 h using a microplate reader (λex = 485 nm), measuring every 15 min. The temperature was maintained at 37 °C during the experiment.
It is important to study the effect caused by ROS production upon the treatment of cells with metallic complexes, as it could indicate TrxR (thioredoxin reductase) inhibition and induction of apoptosis. Thus, the production of hydrogen peroxide in Caco-2 cells upon treatment with IC50 concentrations of complexes 1 and 2 has been studied. The method based on the H2O2-sensitive fluorescent probe DCFH-DA (2′-7′dichlorofluorescin diacetate) has been used. […]

Caco-2/TC7 cells [3] = assay: Annexin V/propidium iodide apoptosis assay, Caco-2/TC7; assay type: cell-based, human; conditions: Caco-2/TC7, IC50 concentration; vehicle 12%
Protocol: Study of cell death. After the appropriate incubation, cells were collected and stained with annexin V-FTIC, according to the manufacturer’s instructions. A negative control was prepared, containing unreacted cells to define the basal level of apoptotic and necrotic or dead cells. After incubation, the cells were transferred to flow-cytometry tubes and washed twice with temperate phosphate-buffered saline (PBS), suspended in 100 μL annexin V binding buffer (10 mM Hepes/NaOH, pH 7.4, 140 mM NaCl, 2.5 mM CaCl2), then 5 μL of annexin V-FITC, and 5 μL of PI was added to each 100 μL of cell suspension. After incubation for 15 min at room temperature in the dark, 400 μL of 1× annexin binding buffer was added and analysed by flow cytometry within one hour. The signal intensity was measured using a FACSARIA BD and analysed using FASCDIVA BD.
This inhibition of apoptosis produces a fast growth and proliferation of cancerous cells. The population of early and late apoptotic cells increased to 35% after treatment with complex 1 in comparison with the vehicle-treated cells (12%). […] Additionally, the effect observed after treating the cells with a dosage equal to the IC50 concentration is time-dependent. […]

Caco-2/TC7 cells [4] = assay: Cell cycle analysis (PI, flow cytometry), Caco-2/TC7; assay type: cell-based, human; conditions: Caco-2/TC7, IC50 concentration, 48 h and 72 h
Protocol: (§1) Cell cycle analysis. After treatment, the cells were fixed in 70% ice-cold ethanol and stored at 4 °C for 24 h. After centrifugation, the cells were rehydrated in PBS (phosphate-buffered saline) and stained with propidium iodide (PI, 50 μg/mL) solution containing RNase A (100 μg/mL). PI-stained cells were analysed for DNA content in a FACSARRAY BD equipped with an argon ion laser. […] Cell cycle distribution was determined on a linear scale. The percentage of cells in cycle phases was determined using MODIFIT 3.0 verity software.
(§2) To investigate the influence of the heteronuclear derivative 1 on the cell cycle distribution of Caco-2 cells, propidium iodide-stained cells were analysed by flow cytometry. The distribution of cells found in each stage of the cell cycle for the control samples was sufficiently homogeneous (Figure 4). For both cell lines, samples analysed after 48 h of incubation had 22% of the cells in the G0/G1 phase, ca. 45% of cells in the synthesis phase, and approximately 30% of cells undergoing the G2 phase or cell division. The low percentage of cells observed in the G0 and G1 phases may be indicative of elevated proliferation and an uncontrolled growth of cancerous cells. It would be of interest to ascertain whether the complexes chosen for the treatments could arrest the cell cycle at phases preceding cell division, thereby inhibiting the proliferation of cancer cells.

Caco-2/PD7 cells = assay: Cell cycle analysis (PI, flow cytometry), Caco-2/PD7; assay type: cell-based, human; conditions: Caco-2/PD7, IC50 concentration, 72 h
Protocol: as §1, §2

| Substance | logP [1] | Cell viability of differentiated Caco-2 cells at 2 × IC50 [2] | Cell viability of differentiated Caco-2 cells at IC50 ([2]; differentiated Caco-2/PD7, concentration = IC50, 72 h) [%] | H2O2 / ROS formation (DCF fluorescence vs vehicle-treated cells) (Caco-2/TC7) | Population of early and late apoptotic cells (Caco-2/TC7 cells [3]) [%] | Effect on cell cycle distribution (Caco-2/TC7 cells [4]) | Effect on cell cycle distribution (Caco-2/PD7 cells) |
| --- | --- | --- | --- | --- | --- | --- | --- |
| [Zn{Au(PTA)(Spy)}2](NO3)2 [compound 2] | 0.47 | 87.66 ± 2.85% | 92.14 ± 4.22 |  |  |  |  |
| [Cu{Au(Spy)(PTA)}2]PF6 [compound 1] | 0.84 | around 90% |  | more markedly | 35 | arrest of the cell cycle in Caco-2/TC7 cells within the G0/G1 phases | not enough living cells being found for the analysis |
